In patent US6916905B2, “Dmt-Tic di-and tri-peptidic derivatives and related compositions and methods of use” (The United States of America as represented by the …, priority 2000, dated 2005):
“Also recorded” adds a separate entry of the source. Where two headings read alike, the source gives them in different places. Non-standard residues stand in square brackets, D forms with d. Residues, ends and D or L forms follow the SMILES beside them. ξ: configuration not given here. *: point of attachment. Dmt = Cc1cc(O)cc(C)c1C[C@H](N)C(=O)O; ξDmt = Cc1cc(O)cc(C)c1CC(N)C(=O)O; Tic = O=C(O)[C@@H]1Cc2ccccc2CN1; NHNH2 = NN*

Columns and labels:
hMDR-1 = hMDR-1 (Homo sapiens, UniProt P08183); experiment: Calcein AM assay for Pgp in hMDR-1 transfected G-185 fibroblasts (Example 49); conditions: calcein fluorescence
Sequence of hMDR-1 (P08183 whole entry): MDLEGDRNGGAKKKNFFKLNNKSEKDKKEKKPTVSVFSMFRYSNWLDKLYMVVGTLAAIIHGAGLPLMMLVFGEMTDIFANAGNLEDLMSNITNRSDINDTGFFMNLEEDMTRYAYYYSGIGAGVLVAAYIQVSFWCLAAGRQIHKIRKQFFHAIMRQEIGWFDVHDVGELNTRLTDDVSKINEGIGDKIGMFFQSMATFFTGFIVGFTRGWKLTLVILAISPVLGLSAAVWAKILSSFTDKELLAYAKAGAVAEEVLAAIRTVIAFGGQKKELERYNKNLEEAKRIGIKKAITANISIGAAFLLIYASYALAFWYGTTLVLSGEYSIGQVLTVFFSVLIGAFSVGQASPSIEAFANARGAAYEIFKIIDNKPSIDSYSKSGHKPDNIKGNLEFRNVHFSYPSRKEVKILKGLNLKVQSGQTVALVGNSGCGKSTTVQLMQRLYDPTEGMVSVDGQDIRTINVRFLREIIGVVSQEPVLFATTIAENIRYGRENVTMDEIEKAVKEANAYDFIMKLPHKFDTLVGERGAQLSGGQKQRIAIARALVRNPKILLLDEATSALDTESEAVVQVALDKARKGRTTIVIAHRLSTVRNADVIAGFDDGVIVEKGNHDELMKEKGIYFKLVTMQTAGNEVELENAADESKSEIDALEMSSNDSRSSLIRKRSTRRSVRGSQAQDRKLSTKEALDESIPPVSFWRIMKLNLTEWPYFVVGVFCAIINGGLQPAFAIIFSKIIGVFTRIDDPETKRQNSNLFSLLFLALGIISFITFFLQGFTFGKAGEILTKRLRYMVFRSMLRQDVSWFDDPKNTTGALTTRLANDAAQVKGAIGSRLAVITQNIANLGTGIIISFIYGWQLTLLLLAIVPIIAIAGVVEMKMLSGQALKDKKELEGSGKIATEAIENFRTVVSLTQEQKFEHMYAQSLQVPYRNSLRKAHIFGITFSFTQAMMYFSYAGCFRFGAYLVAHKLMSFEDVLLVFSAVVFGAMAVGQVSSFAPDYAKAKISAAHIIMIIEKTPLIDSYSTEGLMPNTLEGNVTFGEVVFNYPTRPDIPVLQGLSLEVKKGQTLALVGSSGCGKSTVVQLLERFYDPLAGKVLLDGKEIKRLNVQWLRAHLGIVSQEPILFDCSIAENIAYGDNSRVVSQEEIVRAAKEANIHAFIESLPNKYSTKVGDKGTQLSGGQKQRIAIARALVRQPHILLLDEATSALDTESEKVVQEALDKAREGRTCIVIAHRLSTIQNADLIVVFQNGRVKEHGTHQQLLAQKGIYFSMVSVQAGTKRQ
Method: Stably transfected G-185 fibroblasts containing hMDR-1 and NIH 3T3 cell lines were grown to confluent monolayers in DMEM containing 4.5 g glucose/1, 10% fetal calf serum, L-glutamine, penicillin (50 units/ml), streptomycin (50 μg/ml) and 1 mM sodium pyruvate in 5% CO2 at 37° C. G-185 cells were maintained in […] colchicine.
The assay for Pgp is based on the diffusion of non-fluorescent calcein AM across the cell membrane. Calcein AM is then hydrolyzed and accumulates as the fluorescent calcein. In transfected cells expressing excess hMDR-1, Pgp extrudes calcein AM from the cell before hydrolysis occurs; inhibition of hMDR-1 results in the accumulation of intracellular calcein. Transfected G-185 cells and the NIH 3T3 cells were analyzed in triplicate using seven graded dosages of verapamil or the opioid peptides in 96-well plates. Cells (2.5×10^6/well) were incubated in 100 μl culture medium for 15 min at 37° C. and 50 μl of 1 μM calcein AM in PBS, plus 50 μl of verapamil or one of the present inventive compounds in PBS, or 100 μl of PBS alone (control) were added. Cells were mixed and incubated for 15 min at 37° C., then centrifuged for 5 min at 2,000×g, and then washed three times in 200 μl PBS. Cell pellets were resuspended in 200 μl PBS and transferred to white Microfluor Plates (Nunc, Copenhagen, Denmark) in order to measure calcein-specific fluorescence (494 nm absorption; 517 nm emission). Internal controls were carried out with each experiment using verapamil and PBS in order to compare the consistency between cell preparations. Means±SE (error bars) were determined and plotted using Prism™ (GraphPad, San Diego, Calif.).

μ-opioid receptors = target: T1, μ-opioid receptors (Rattus norvegicus, UniProt P33535); experiment: Rat brain synaptosome (P2) binding, [3H]DAGO (Example 47)
T1 construct: assayed with a rat brain synaptosomal preparation (P2); from tissue; host or cells: rat brain P2 synaptosomes
T1 sequence (P33535 whole entry): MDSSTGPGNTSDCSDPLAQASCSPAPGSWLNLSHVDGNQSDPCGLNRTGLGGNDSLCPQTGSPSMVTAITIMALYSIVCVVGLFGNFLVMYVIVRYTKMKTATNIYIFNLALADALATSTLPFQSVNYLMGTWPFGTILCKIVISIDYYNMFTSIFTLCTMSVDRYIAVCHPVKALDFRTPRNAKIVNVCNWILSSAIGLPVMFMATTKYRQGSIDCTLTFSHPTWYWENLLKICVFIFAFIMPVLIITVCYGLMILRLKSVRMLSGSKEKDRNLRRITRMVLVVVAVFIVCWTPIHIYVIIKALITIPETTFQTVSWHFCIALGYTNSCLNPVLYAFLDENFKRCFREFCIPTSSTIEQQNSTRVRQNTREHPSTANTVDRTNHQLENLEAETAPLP

μ receptors = μ receptors (Cavia porcellus, UniProt P97266); experiment: Guinea pig ileum (GPI) functional bioassay (Example 48)
Sequence of μ receptors (P97266 whole entry, looked up): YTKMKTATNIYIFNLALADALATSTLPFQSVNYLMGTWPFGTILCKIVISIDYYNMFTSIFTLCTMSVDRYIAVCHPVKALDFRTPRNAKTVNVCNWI
Method: (§1) The functional bioactivity of the present inventive compounds was assessed using standard functional bioassays of δ and μ activity in MVD and GPI (Salvadori et al. (1995), supra; and Salvadori et al., J. Med. Chem. 36: 3748-3756 (1993)). […] Dose-response curves were obtained (Salvadori et al. (1995), supra) for both tissues. […] Data were derived from at least four independent tissue samples and dose-response curves from which the pA2 values were determined (Salvadori et al. (1997), supra) according to Arunlakshana and Schild (Br. J. Pharmacol. 14: 48-58 (1959)).

δ receptors = δ receptors (Mus musculus, UniProt P32300)
Sequence of δ receptors (P32300 whole entry): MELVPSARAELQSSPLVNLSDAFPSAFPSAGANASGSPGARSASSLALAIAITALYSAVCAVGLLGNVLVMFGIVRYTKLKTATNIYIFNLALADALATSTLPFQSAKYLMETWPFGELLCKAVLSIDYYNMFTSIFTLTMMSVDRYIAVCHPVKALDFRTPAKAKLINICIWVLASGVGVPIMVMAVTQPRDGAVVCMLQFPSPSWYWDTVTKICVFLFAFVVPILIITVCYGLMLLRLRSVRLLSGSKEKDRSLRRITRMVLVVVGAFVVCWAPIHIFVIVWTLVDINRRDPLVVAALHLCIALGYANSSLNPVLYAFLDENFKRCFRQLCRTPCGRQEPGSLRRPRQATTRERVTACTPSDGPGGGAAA
Method: as §1

δ-opioid receptors [1] = target: T2, δ-opioid receptors (Rattus norvegicus, UniProt P33533); experiment: Rat brain synaptosome (P2) binding, δ antagonist [3H]N,N(CH3)2-Dmt-Tic-OH (Example 47); conditions: for Antagonist K1μ/Kiδ: selectivity, Kiδ from antagonist radioligand [3H]N,N(CH3)2-Dmt-Tic-OH
T2 construct: assayed with a rat brain synaptosomal preparation (P2); from tissue; host or cells: rat brain P2 synaptosomes
T2 sequence (P33533 whole entry): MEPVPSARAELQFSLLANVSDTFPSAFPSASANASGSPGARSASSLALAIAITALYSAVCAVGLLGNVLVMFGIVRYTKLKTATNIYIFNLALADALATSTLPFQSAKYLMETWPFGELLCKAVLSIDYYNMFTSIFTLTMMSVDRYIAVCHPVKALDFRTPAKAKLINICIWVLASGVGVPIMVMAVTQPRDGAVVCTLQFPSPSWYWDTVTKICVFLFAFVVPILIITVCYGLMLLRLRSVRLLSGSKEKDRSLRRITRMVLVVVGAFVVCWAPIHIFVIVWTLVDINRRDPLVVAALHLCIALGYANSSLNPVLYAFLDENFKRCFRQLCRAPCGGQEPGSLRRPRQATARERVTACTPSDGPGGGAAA
Method: Briefly, the agonists [^3H]DPDPE (30-60 Ci/mmol, NEN-DuPont) and [^3H]DAGO (30-60 Ci/mmol, Amersham) were used to label δ and μ sites, respectively, under saturation binding conditions (2 hrs at 22° C.). Excess unlabeled peptide (2 μM) established non-specific binding levels and the labeled membranes were rapidly filtered on Whatman GF/C glass fibre filters, thoroughly washed, dried and measured for radioactivity using CytoScint (ICN, Irvine, Calif.). […] The affinity constants (Ki) were calculated according to Cheng and Prusoff (Biochem. Pharmacol. 22: 3099-3108 (1973)).

δ-opioid receptors [2] = target: T2, δ-opioid receptors; experiment: Rat brain synaptosome (P2) binding, agonist [3H]DPDPE (Example 47); conditions: for Agonist K1μ/Kiδ: selectivity, Kiδ from agonist radioligand [3H]DPDPE
[3] = rat brain synaptosomes (P2), mean ± SEM, n in parentheses, read-out: Kiμ (nM) [^3H]DAGO
[4] = δ antagonism, Ke = antilog of pA2
[5] = rat brain synaptosomes (P2), δ antagonist radioligand, mean ± SEM, n in parentheses, read-out: Kiδ(nM) [^3H]N,N(CH3)2-Dmt-Tic-OH
[6] = rat brain synaptosomes (P2), mean ± SEM, n in parentheses, read-out: Kiδ(nM) [^3H]DPDPE
[7] = MVD pA2 (range), δ antagonism against deltorphin C, mean (range)

Compound	inhibition of hMDR-1 (Pgp), in words (hMDR-1)	Ki (μ-opioid receptors; [3]) [nM]	bioactivity on GPI (μ), in words (μ receptors)	bioactivity on MVD (δ), in words (δ receptors)	MVD Ke (δ receptors; [4]) [nM]	Ki (δ-opioid receptors [1]; [5]) [nM]	Antagonist K1μ/Kiδ (δ-opioid receptors [1])	Ki (δ-opioid receptors [2]; [6]) [nM]	Agonist K1μ/Kiδ (δ-opioid receptors [2])	also measured
Cc1cc(O)cc(C[C@H](N)C(=O)N[C@H](Cc2ccccc2)C(=O)NCC(=O)N[C@H](C(=O)N[C@H](C(N)=O)C(C)C)C(C)C)c1C [DPD, H-Dmt-D-Phe-Gly-Val-Val-NH2]	inactive	–	–	–	–	–	–	–	–	–
Cc1cc(O)cc(C)c1C[C@H](N)C(=O)N1Cc2ccccc2C[C@H]1C(=O)Nc1nnn[nH]1 [Compound 10, H-Dmt-Tic-NH-tetrazole-5-yl]	–	37 ± 4.5	very minimal activity on GPI	weak δ antagonist	36.3	9.75 ± 1.73	4	0.7 ± 0.03	53	δ/μ selectivity, in words (δ-opioid receptors [2]; from Table II binding): essentially nonselective
Cc1cc(O)cc(C)c1C[C@H](N)C(=O)N1Cc2ccccc2C[C@H]1C(=O)NN [Compound 6, H-Dmt-Tic-NHNH2] (H-[Dmt]-[Tic]-NHNH2)	–	85.1 ± 7.3	–	–	–	42 ± 7.9	2	0.99 ± 0.04	86	δ/μ selectivity, in words (δ-opioid receptors [2]; from Table II binding): essentially nonselective
Cc1cc(O)cc(C)c1CC(N)C(=O)N1Cc2ccccc2C[C@H]1C(=O)O (stereo partly drawn) [H-(R,S)Dmt-Tic-OH, reference compound] (H-[ξDmt]-[Tic]-OH)	–	1160 ± 327	–	–	–	–	–	–	–	EC50 (μ receptors; μ agonism, read-out: GPI ED50): > 10000 nM; Kb (δ receptors): 6.76 nM
Cc1cc(O)cc(C)c1C[C@@H](C(=O)N1Cc2ccccc2C[C@@H]1C(=O)NC12CC3CC(CC(C3)C1)C2)N(C)C [Compound 16, N,N(Me)2-Dmt-D-Tic-NH-1-adamantane]	–	–	μM activity on GPI	greatly reduced bioactivity on MVD	128	–	0.42	–	0.36	Ki (μ-opioid receptors): 50.5 ± 2.6 nM; EC50 (μ receptors): 4480 nM; Kb (δ receptors; [7]): 123 nM; Ki (δ-opioid receptors [1]): 120 ± 25.9 nM; Ki (δ-opioid receptors [2]): 140 ± 30 nM; δ affinity, in words (δ-opioid receptors [2]; from Table II binding): lost high δ affinity; δ/μ selectivity, in words (δ-opioid receptors [2]; from Table II binding): weakly μ selective
C[C@@H](NC(=O)[C@@H](N)Cc1ccc(O)cc1)C(=O)NCC(=O)N(C)[C@@H](Cc1ccccc1)C(=O)NCCO [DAGO, H-Tyr-D-Ala-Gly-N-MePhe-Gly-ol]	inactive; also recorded: lack of inhibition	–	–	–	–	–	–	–	–	–
deltorphin	lack of inhibition	–	–	–	–	–	–	–	–	–
CNC(=O)[C@H](C)NC(=O)[C@@H]1Cc2ccccc2CN1C(=O)[C@@H](N)Cc1c(C)cc(O)cc1C [Compound 18, H-Dmt-Tic-Ala-NHMe] (H-[Dmt]-[Tic]-Ala-NHMe)	–	5.75 ± 0.72	very weak δ and μ agonism	very weak δ and μ agonism	–	0.12 ± 0.04	47	0.058 ± 0.01	100	EC50 (μ receptors): 290 nM; EC50 (δ receptors): 1290 nM
H-Tyr-D-Ala-Gly-N-MePhe-Met(O)-ol [DAMME]	inactive; also recorded: lack of inhibition	–	–	–	–	–	–	–	–	–
Cc1cc(O)cc(C)c1C[C@@H](C(=O)N1Cc2ccccc2C[C@H]1C(=O)O)n1cccc1 [Compound 5, [des-NH2-α-pyrrole-1-yl]-Dmt-Tic-OH]	–	5590 ± 411	–	detrimental for all bioactivity measurements on MVD	408	9.94 ± 2.5	562	16.6 ± 2.5	338	–
Cc1cc(O)cc(C)c1C[C@H](N)C(=O)N1Cc2ccccc2C[C@H]1CC(=O)O [Compound 1, H-Dmt-βTic-OH]	–	418 ± 86	–	highest δ-antagonist functional bioactivities	–	0.71 ± 0.04	590	0.85 ± 0.2	498	EC50 (μ receptors): > 10000 nM; Kb (δ receptors; MVD Ke(nM), δ antagonism, Ke = antilog of pA2): 1.41 nM; Kb (δ receptors; [7]): 1.58 nM
CNC(=O)[C@@H]1Cc2ccccc2CN1C(=O)[C@H](Cc1c(C)cc(O)cc1C)N(C)C [Compound 13, N,N(Me)2-Dmt-Tic-NHMe]	–	359 ± 62	weak μ antagonist	–	0.41	0.28 ± 0.02	1268	0.54 ± 0.07	669	EC50 (μ receptors; μ agonism, read-out: GPI ED50): > 10000 nM; GPI Ke (μ receptors; μ antagonism): 0.39 µM; Kb (μ receptors; μ antagonism, mean (range), read-out: GPI pA2 (range) (converted)): 389 nM; Kb (δ receptors; [7]): 0.407 nM
